Patent publication US10774097B2, “Boron compounds as inhibitors of lipoxygenase and the lipoxygenase pathway, and preparation and use thereof” (UNIVERSITÄT LEIPZIG, priority 2015, dated 2020)
In brackets after ≈: the same amount, converted by molar mass. Read-outs that look alike come from different tables or passages of the source.

Legend:
[1] = test system: B16; test: Cytotoxicity MTT assay, B16; format: cell-based; conditions: MTT assay (top value)
Procedure: (§1) In order to determine the cytotoxicity towards various cancer cell lines, MTT and crystal violet (CV) assays were carried out. The MTT essay takes place as specified by T. Mosmann [T. Mosmann, J. Immunol. Methods, 1983, 65, 55], and the CV test takes place as specified by D. A. Flick et al. [D. A. Flick, G. E. Gifford, J. Immunol. Methods, 1984, 68, 167].
(§2) In these tests, the percentage of dead cells was analysed on the basis of the concentration of the inhibitors. The obtained IC50 value indicates the concentration of a particular inhibitor at which 50% of the analysed cells die off.
(§3) The proportion of living cells was determined by the MTT assay (3-(4,5-dimethylthiazolyl-2)-2,5-diphenyltetrazoliumbromide) and the crystal violet (CV) assay. In the MTT assay, the presence of NADH and NADPH is established. These two compounds are characteristic metabolism products in a functioning respiratory chain. NADH and NADPH reduce the MTT dye, thus leading to a change in colour, which can be measured and is thus directly proportional to the number of living cells.
(§4) Three skin cancer cell lines (A375, B16, B16F10) and three colon cancer cell lines (CT26CL25, HCT116, SW480) were analysed. Primary fibroblasts from human lung tissue (MRC-5) were used as an example of healthy cells and thus as a negative control.
(§5) The top value for each cell represents the IC50 value in the MTT assay, and the bottom value represents the IC50 value in the CV assay (crystal violet).

[2] = test system: primary fibroblasts (MRC-5); test: Cytotoxicity MTT assay, MRC-5; format: cell-based, human
Procedure: as §1, §2, §3, §4, §5

[3] = test system: SW480; test: Cytotoxicity MTT assay, SW480; format: cell-based; conditions: MTT assay (top value)
Procedure: as §1, §2, §3, §4, §5

[4] = test system: B16; test: Cytotoxicity crystal violet (CV) assay, B16; format: cell-based; conditions: CV assay (bottom value)
Procedure: as §1, §2
(§6) Meanwhile, in the crystal violet assay, the crystal violet dye can only diffuse through the perforated cell membranes of dead cells. In this case, the number of dyed cells represents the number of dead cells.
as §4, §5

[5] = test system: A375; test: Cytotoxicity crystal violet (CV) assay, A375; format: cell-based; conditions: CV assay (bottom value)
Procedure: as §1, §2, §6, §4, §5

[6] = target: T1, 5-LOX (Homo sapiens, UniProt P09917); test: Inhibition test: 5-LOX activity in intact polymorphonuclear leukocytes (arachidonic acid conversion, HPLC); format: cell-based; conditions: 5-LOX-FLAP enzyme system, 15 min at 37° C., read-out: IC50 value (at concentration)
T1 construct: endogenous in cells; host or cells: intact polymorphonuclear leukocytes isolated from blood
T1 sequence (P09917 1-674): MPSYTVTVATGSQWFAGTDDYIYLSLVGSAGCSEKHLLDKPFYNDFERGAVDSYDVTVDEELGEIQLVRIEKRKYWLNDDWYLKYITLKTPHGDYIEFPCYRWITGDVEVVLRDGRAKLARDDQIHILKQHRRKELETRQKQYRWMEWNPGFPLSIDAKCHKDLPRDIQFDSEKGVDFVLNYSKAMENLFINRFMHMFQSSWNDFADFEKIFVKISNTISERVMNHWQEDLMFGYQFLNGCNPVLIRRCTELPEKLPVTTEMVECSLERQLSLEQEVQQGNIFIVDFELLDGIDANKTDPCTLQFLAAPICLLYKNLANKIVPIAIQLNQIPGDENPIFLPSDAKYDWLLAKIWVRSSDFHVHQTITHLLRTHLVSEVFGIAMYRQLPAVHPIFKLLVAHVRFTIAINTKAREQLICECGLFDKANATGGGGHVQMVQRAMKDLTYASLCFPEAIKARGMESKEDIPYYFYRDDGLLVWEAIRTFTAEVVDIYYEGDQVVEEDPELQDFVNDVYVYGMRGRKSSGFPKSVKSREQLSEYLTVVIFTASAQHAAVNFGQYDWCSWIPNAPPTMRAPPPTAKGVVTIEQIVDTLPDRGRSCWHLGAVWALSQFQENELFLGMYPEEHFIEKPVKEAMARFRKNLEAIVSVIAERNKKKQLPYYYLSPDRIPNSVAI
Procedure: The 5-LOX activity of the cells was established on the basis of the concentration of inhibitor.
In this process, intact polymorphonuclear leukocytes were isolated from blood as specified in the known literature [C. Greiner et al., British Journal of Pharmacology, 2011, 164, 781-793]. The cells were grown on cell sheets until a confluence of 95% was reached, i.e. 95% of the cell sheets was covered with cells. Each cell sheet was then treated with 10 μl of a solution of the inhibitor at concentrations of 0.05 μM, 0.1 μM, 0.5 μM, 1 μM, 5 μM, 10 μM, 50 μM and 100 μM at 37° C. for 15 minutes. Each cell sheet was then treated with an arachidonic acid solution for 10 minutes. 10 μl of a 1:1 mixture of 2 mM of arachidonic acid and 250 μM of A23187 Ca^2+-ionophore solution in ethanol was used for this.
Conversion of a small amount of arachidonic acid is evidence of a strong inhibiting effect.

[7] = Solubility tests in ethanol and DMSO; format: physicochemical; conditions: solvent added until clear solution; for solubility: organic solvent or mixture, thermodynamic from solid
Procedure: Solubility tests in ethanol and DMSO were carried out to determine the solubility. The amount of solvent required to obtain a clear solution was added to 4 mg of the compounds in an Eppendorf tube. The concentration of the solution was then determined on the basis of the mass of the compounds and the amount of solvent.

[8] = test system: SW480; test: Cytotoxicity crystal violet (CV) assay, SW480; format: cell-based; conditions: CV assay (bottom value)
Procedure: as §1, §2, §6, §4, §5

[9] = test system: CT26CL25; test: Cytotoxicity crystal violet (CV) assay, CT26CL25; format: cell-based; conditions: CV assay (bottom value)
Procedure: as §1, §2, §6, §4, §5

[10] = test system: A375; test: Cytotoxicity MTT assay, A375; format: cell-based
Procedure: as §1, §2, §3, §4, §5

[11] = test system: HCT116; test: Cytotoxicity crystal violet (CV) assay, HCT116; format: cell-based; conditions: CV assay (bottom value)
Procedure: as §1, §2, §6, §4, §5

[12] = test system: CT26CL25; test: Cytotoxicity MTT assay, CT26CL25; format: cell-based; conditions: MTT assay (top value)
Procedure: as §1, §2, §3, §4, §5

[13] = test system: HCT116; test: Cytotoxicity MTT assay, HCT116; format: cell-based; conditions: MTT assay (top value)
Procedure: as §1, §2, §3, §4, §5

[14] = test system: various cancer cell lines; test: Cytotoxicity tests on cancer cell lines (summary in words); conditions: comparison with phenyl-based compounds
Procedure: as §1, §2, §4

[15] = MTT assay (top value), read-out: IC50 A375

1-(7-Thiomethylquinolin-2-yl-1,7-dicarba-closo-dodecaboran(12)yl)-hexan-1-ol [Embodiment 5]
IC50 [1]: 50 µM
selectiveness between healthy cells and cancer cells ([2]; IC50 for healthy cells (MRC-5) divided by IC50 for cancer cells (A375)): 10.2
IC50 ([2]; read-out: IC50 value for healthy cells (MRC-5)): 82 µM
IC50 [3]: 33.1 µM
IC50 [4]: > 50 µM
IC50 [5]: 30.5 µM
IC50 [6]: 2.5 µM
Solubility in DMSO ([7]; DMSO): 953.9 mM
Solubility in EtOH ([7]; ethanol): 238.5 mM
IC50 [8]: > 50 µM
IC50 [9]: 50 µM
IC50 ([10]; read-out: IC50 value for A375 cancer cells): 8 µM
IC50 [11]: > 50 µM
IC50 [12]: 46 µM
IC50 [13]: 45 µM

1-((7-Quinolin-2-ylmethoxy)-1,7-dicarba-closo-dodecaboran(12)yl)-hexan-1-ol [Embodiment 3]
cytotoxicity towards cancer cell lines (in words) [14]: considerably higher cytotoxicity
IC50 [6]: 1.4 µM
Solubility in DMSO ([7]; DMSO): 208.3 mM
Solubility in EtOH ([7]; ethanol): 86.8 mM

1-(Quinolin-2-ylmethoxy)-1,7-dicarba-closo-dodecaborane(12) [Comparative Example 1]
IC50 [1]: 47.4 µM
IC50 [3]: > 50 µM
IC50 [4]: 47.6 µM
IC50 [5]: > 50 µM
cytotoxicity towards cancer cell lines (in words) [14]: insufficient cytotoxicity
IC50 [6]: 2.3 µM
Solubility in DMSO ([7]; DMSO): 432 mM
Solubility in EtOH ([7]; ethanol): 72 mM
IC50 [8]: > 50 µM
IC50 [9]: > 50 µM
IC50 [10, 15]: 50 µM
IC50 [12]: > 50 µM
IC50 [13]: > 50 µM

1-(Quinolin-2-ylmethyl)thio-1,7-dicarba-closo-dodecaborane(12) [Comparative Example 2]
IC50 [1]: > 50 µM
IC50 [4]: > 50 µM
IC50 [5]: 34.8 µM
cytotoxicity towards cancer cell lines (in words) [14]: insufficient cytotoxicity
IC50 [6]: 5.8 µM
Solubility in DMSO ([7]; DMSO): 600 mM
Solubility in EtOH ([7]; ethanol): 67 mM
IC50 [8]: > 50 µM
IC50 [9]: > 50 µM
IC50 [10, 15]: 30 µM
IC50 [11]: > 50 µM
IC50 [12]: > 50 µM
IC50 [13]: > 50 µM

1-Quinolin-2-ylmethoxy-1,12-dicarba-closo-dodecaborane(12) [Comparative Example 3]
IC50 [1]: 45.7 µM
IC50 ([2]; single value in cell, unit inferred, top value = MTT assay, read-out: IC50 MRC-5): > 100 µM
IC50 [3]: 29 µM
IC50 [4]: 46 µM
IC50 [5]: 26.9 µM
IC50 [6]: 1.4 µM
Solubility in DMSO ([7]; DMSO): 208.3 mM
Solubility in EtOH ([7]; ethanol): 86.8 mM
IC50 [9]: 50 µM
IC50 [10, 15]: 8.8 µM
IC50 [11]: > 50 µM
IC50 [12]: 35 µM

CCCCCC(O)c1cccc(OCc2ccc3ccccc3n2)c1 (stereo not drawn) [Rev-5901, reference compound]
IC50 ([1]; Mus musculus, B16): 27.6 µM
IC50 ([2]; Homo sapiens, MRC5, MTT assay (top value), healthy cells, read-out: IC50 MRC-5): 70.1 µM
IC50 ([2]; Homo sapiens, MRC5, read-out: IC50 value for healthy cells (MRC-5)): 70 µM
IC50 ([3]; Homo sapiens, SW480): 50 µM
IC50 ([4]; Mus musculus, B16): 45 µM
IC50 ([5]; Homo sapiens, A-375): 46.5 µM
solubility ([7]; DMSO, read-out: Solubility in DMSO): 29.8 mM (≈ 10000 µg/mL)
solubility ([7]; ethanol, read-out: Solubility in EtOH): 29.7 mM (≈ 9960 µg/mL)
IC50 ([8]; Homo sapiens, SW480): > 50 µM
IC50 [9]: > 50 µM
IC50 ([10]; Homo sapiens, A-375, MTT assay (top value), read-out: IC50 A375): 25 µM
IC50 ([10]; Homo sapiens, A-375, depending on the method of analysis used (MTT/CV), read-out: IC50 values towards melanoma cancer cell line A375): 25 to 50 µM
IC50 ([11]; Homo sapiens, HCT-116): 50 µM
IC50 [12]: 28.1 µM
IC50 ([13]; Homo sapiens, HCT-116): 50 µM
